Measured values reported in the OligoGym collection.
“And” between values parts separate entries of the source, which are not always exact repeats. Equal entries are not always repeated. After the bases stand the sugars from the 5' end (letter, count) and the backbone: PS all phosphorothioate, else s phosphorothioate and o phosphodiester by linkage. HELM strings list units from the 5' end as sugar, base in round brackets, then linkage (d deoxyribose, r ribose, m 2'-O-methyl, p phosphodiester). Methylation of C is not given here. [moe] = 2'-O-(2-methoxyethyl) (MOE); [cEt] = constrained ethyl (cEt); [sp] = phosphorothioate linkage; e = 2'-O-(2-methoxyethyl) (MOE); k = constrained ethyl (cEt); d = 2'-deoxy (DNA)

target: IRF5; settings: ASO, KARPAS-229, 0.44444 µM

First: ACCACTGTGTACCCCA (sugars k3 d10 k3, PS)
Second: ACCACTGTGTACCCCA (sugars kekdddddddddeekk, PS)
The target mRNA inhibition of the first is lower: 16% for the first, 28% for the second.

Substance ACGAGTTATGGGAAGG (sugars k3 d10 k3, PS) has a target mRNA inhibition of 50%.

same assay, conditions: ASO, KARPAS-229, 1.33333 µM

Going from ACCACTGTGTACCCCA (sugars k3 d10 k3, PS) to “ACCACTGTGTACCCCA (sugars kekdddddddddeekk, PS)”, the target mRNA inhibition rises from 41% to 45%.

Work on ACGAGTTATGGGAAGG (sugars k3 d10 k3, PS) yielded a target mRNA inhibition of 54%.

same assay, conditions: ASO, KARPAS-229, 4 µM

“AAGGGCACAGACGCAGG (sugars kdddddddddkekeked, PS)” and AATGCAACATCCATCA (sugars k3 d10 k3, PS) are the same in target mRNA inhibition: 0% for the first, 0% for the second.

First: ACATCTCCACATCAGT (sugars k2 d9 e3 k2, PS)
Second: ACATCTCCACATCAGT (sugars k3 d9 k3 e1, PS)
The target mRNA inhibition of the first is higher: 41% for the first, 11% for the second.

Going from “ACATCTCCACATCAGT (sugars kkdddddddddkdkdk, PS)” to “ACATCTCCACATCAGT (sugars kkkddddddddkekek, PS)”, the target mRNA inhibition falls from 28% to 14%.

Compared with “ACCACTGTGTACCCCA (sugars kkddddddddkekekk, PS)”, “ACCACTGTGTACCCCA (sugars kkkdddddddddkeke, PS)” is higher in target mRNA inhibition: 15% for the first, 39% for the second.

Compared with “ACCATTCTATGCCTTT (sugars kkdddddddddkekek, PS)”, “ACCATTCTATGCCTTT (sugars kkddddddddkekekk, PS)” is lower in target mRNA inhibition: 40% for the first, 0% for the second.

First: ACCATTCTATGCCTTT (sugars kkkdddddddddkeke, PS)
Second: ACCATTCTATGCCTTT (sugars kkkddddddddkekek, PS)
The target mRNA inhibition of the first is higher: 49% for the first, 15% for the second.

First: ACCCAATGCAACATCC (sugars k3 d10 k3, PS)
Second: ACGAGCAAAGGGTGAG (sugars k3 d10 k3, PS)
The target mRNA inhibition of the first is lower: 33% for the first, 47% for the second.

“ACTGACACAGGCGGAT (sugars k2 d9 e3 k2, PS)” and “ACTGACACAGGCGGAT (sugars kkddddddddddkeke, PS)” are the same in target mRNA inhibition: 0% for the first, 0% for the second.

First: ACTGACACAGGCGGAT (sugars kkdddddddddkekek, PS)
Second: ACTGTATTACCTATAC (sugars k3 d10 k3, PS)
The target mRNA inhibition of the first is lower: 0% for the first, 22% for the second.

AGACTTTTTGCTCTAA (sugars k3 d10 k3, PS) and “AGATGGTGTTATCTCC (sugars kdddddddddkekeke, PS)” are the same in target mRNA inhibition: 0% for the first, 0% for the second.

Going from “AGCTTGGTCTTGACCT (sugars kddddddddddkekek, PS)” to “AGGAAGTGAGTCTCAA (sugars k3 d9 k3 e1, PS)”, the target mRNA inhibition rises from 0% to 47%.

First: AGGAAGTGAGTCTCAA (sugars k3 d10 k3, PS)
Second: AGGAAGTGAGTCTCAA (sugars kddddddddddkekek, PS)
The target mRNA inhibition of the first is higher: 42% for the first, 11% for the second.

First: AGGAAGTGAGTCTCAA (sugars kkkddddddddkekek, PS)
Second: AGGAGTGAGACGAGCA (sugars kddddddddddkekek, PS)
The target mRNA inhibition of the first is lower: 24% for the first, 37% for the second.

Going from “AGGAGTGAGACGAGCA (sugars kdddddddddkekeke, PS)” to “AGGAGTGAGACGAGCA (sugars kkddddddddkekekk, PS)”, the target mRNA inhibition rises from 0% to 35%.

First: AGGAGTGAGACGAGCA (sugars kkkddddddddkdkdk, PS)
Second: AGGTTCTTGGACTCTC (sugars kekdddddddddeekk, PS)
The target mRNA inhibition of the first is higher: 37% for the first, 0% for the second.

“AGGTTCTTGGACTCTC (sugars kkkdddddddddkeke, PS)” and “AGGTTCTTGGACTCTC (sugars kkkddddddddkdkdk, PS)” are the same in target mRNA inhibition: 0% for the first, 0% for the second.

Compared with “AGTCATGGGCGTGAGGC (sugars kkddddddddkekekkd, PS)”, “AGTCATGGGCTGAGGC (sugars kddddddddddkekek, PS)” is higher in target mRNA inhibition: 17% for the first, 25% for the second.

First: ATAGGAGTGAGACGAG (sugars k3 d10 k3, PS)
Second: ATCACCACTGTGTACC (sugars kddddddddddkekek, PS)
The target mRNA inhibition of the first is higher: 16% for the first, 0% for the second.

“ATCACCACTGTGTACC (sugars kekdddddddddeekk, PS)” and “ATCACCACTGTGTACC (sugars kkkdddddddddkeke, PS)” are the same in target mRNA inhibition: 0% for the first, 0% for the second.

Compared with “ATCACCACTGTGTACC (sugars kkkddddddddkdkdk, PS)”, “ATGAGTCATGGGCTGA (sugars kdddddddddkekeke, PS)” is higher in target mRNA inhibition: 0% for the first, 7% for the second.

Going from “ATGGTGTTATCTCCGT (sugars kddddddddddkekek, PS)” to “ATTTCTGCTCCAGGTT (sugars kddddddddddkekek, PS)”, the target mRNA inhibition rises from 0% to 39%.

“CAATGCAACATCCATC (sugars kdddddddddkekeke, PS)” and “CAATGCAACATCCATC (sugars kkddddddddkekekk, PS)” are the same in target mRNA inhibition: 0% for the first, 0% for the second.

Compared with CAATTTTGCATTCCAT (sugars k3 d10 k3, PS), “CAATTTTGCATTCCAT (sugars kddddddddddkekek, PS)” is lower in target mRNA inhibition: 52% for the first, 21% for the second.

AAGGGCACAGCGCAGG (sugars k3 d10 k3, PS) was tested, and the target mRNA inhibition was 48% and 42%.
For ACCACTGTGTACCCCA (sugars k3 d10 k3, PS), the target mRNA inhibition was 75% and 57%.
“ACCACTGTGTACCCCA (sugars kekdddddddddeekk, PS)” was tested, and the target mRNA inhibition was 63% and 62%.
With ACGAGTTATGGGAAGG (sugars k3 d10 k3, PS) the target mRNA inhibition was 74% and 73%.

same assay, conditions: ASO, KARPAS-229, 12 µM

First: ACCACTGTGTACCCCA (sugars k3 d10 k3, PS)
Second: ACCACTGTGTACCCCA (sugars kekdddddddddeekk, PS)
The target mRNA inhibition of the first is lower: 65% for the first, 77% for the second.

ACGAGTTATGGGAAGG (sugars k3 d10 k3, PS) was tested, and the target mRNA inhibition was 81%.

target: HBV; settings: ASO, HepG2, 0.07 µM

With “RNA1{[moe](T)[sp].[moe](G)[sp].[moe](G)[sp].d(A)[sp].d(G)[sp].d(C)[sp].d(C)[sp].d(A)[sp].d(C)[sp].d(C)[sp].d(A)[sp].d(G)[sp].[moe](C)[sp].[moe](A)[sp].[moe](G)[sp].[moe](G)}$$$$V2.0” the target mRNA inhibition was 58% and 57%.
In the case of “RNA1{[moe](T)[sp].[moe](G)[sp].[moe](G)[sp].d(A)[sp].d(G)[sp].d(C)[sp].d(C)[sp].d(A)[sp].d(C)[sp].d(C)[sp].d(A)[sp].d(G)[sp].d(C)[sp].[cEt](A)[sp].[cEt](G)[sp].[cEt](G)}$$$$V2.0”, the target mRNA inhibition is reported as 60% and 67%.
For “RNA1{[moe](T)[sp].[moe](G)[sp].d(C)[sp].d(A)[sp].d(G)[sp].d(A)[sp].d(G)[sp].d(G)[sp].d(T)[sp].d(G)[sp].d(A)[sp].[moe](A)[sp].[moe](G)[sp].[moe](C)[sp].[moe](G)[sp].[moe](A)[sp].[moe](A)}$$$$V2.0”, the target mRNA inhibition was 39% and 45%.
For “RNA1{[moe](T)[sp].[moe](T)[sp].[moe](C)[sp].[moe](C)[sp].d(G)[sp].d(C)[sp].d(A)[sp].d(G)[sp].d(T)[sp].d(A)[sp].d(T)[sp].d(G)[sp].d(G)[sp].[moe](A)[sp].[moe](T)[sp].[moe](C)[sp].[moe](G)}$$$$V2.0”, the target mRNA inhibition was 56% and 38%.
In the case of “RNA1{[moe](T)[sp].[moe](T)[sp].[moe](T)[sp].[moe](A)[sp].d(T)[sp].d(G)[sp].d(C)[sp].d(C)[sp].d(T)[sp].d(A)[sp].d(C)[sp].d(A)[sp].d(G)[sp].[moe](C)[sp].[moe](C)[sp].[moe](T)[sp].[moe](C)}$$$$V2.0”, the target mRNA inhibition is reported as 54% and 37%.
In the case of “RNA1{[moe](T)[sp].[moe](T)[sp].[moe](T)[sp].d(A)[sp].d(T)[sp].d(G)[sp].d(C)[sp].d(C)[sp].d(T)[sp].d(A)[sp].d(C)[sp].d(A)[sp].d(G)[sp].[cEt](C)[sp].[cEt](C)[sp].[cEt](T)}$$$$V2.0”, the target mRNA inhibition is reported as 45% and 55%.
For “RNA1{[moe](T)[sp].[moe](T)[sp].d(T)[sp].d(A)[sp].d(T)[sp].d(G)[sp].d(C)[sp].d(C)[sp].d(T)[sp].d(A)[sp].d(C)[sp].[moe](A)[sp].[moe](G)[sp].[moe](C)[sp].[moe](C)[sp].[moe](T)}$$$$V2.0”, the target mRNA inhibition was 46% and 47%.
